# From patent publication US20260364186A1, “Chemical Conjugates, Compositions, and Methods of Preparation and Use Thereof” (Transfection Holdings Limited, priority 2022, published 2026)
# “Also recorded” adds a separate entry of the source.
# What was measured:
# Assay type in all cases: cell-based, human
# Jurkat cells = test: Time course of uptake by FACS (Example 6); settings: 200 nM
# Description: FIG. 6: Time course of uptake for 124, 126, and 132 conjugate compounds. Tests were performed using 200 nM each conjugate and 5, 30 and 60 min incubation with Jurkat cells (immortalized T lymphocytes). Mean fluorescent intensities (MFI). 1,200 cells sorted by FACS. Bars represent mean±SD. Results represents a single experiment done in triplicate.
# Materials and methods: Jurkat cells were diluted on RPMI media (supplemented with 10% FBS+1% penicillin-streptomycin) to 400 cells/μL. 5 μL of […] stock solutions in DMSO from 124, 126 and 132 were diluted with 1245 μL of RPMI media (supplemented with 10% FBS+1% penicillin-streptomycin) to give a 400 nM solution. 250 μL of cell suspensions were then added to each well in a 96 well plate and 250 μL of conjugate solutions (giving a 200 nM final concentration). 250 μL of media only was added to the DMSO control wells. Incubation was carried out for 5, 30 and 60 minutes at 37 °C in triplicate wells for each compound and time point.
# [1] = test system: NZM40 (NRAS Q16H) melanoma cell line; test: Sulforhodamine B (SRB) assay of proliferation (Example 7); settings: 1 μM, 72 h
# Description: FIG. 7: The 124 conjugate was tested for toxicity using 1 μM final concentration and 72 hour incubation with melanoma cell line NZM40 (NRAS Q16H mutant metastatic melanoma). Cell densities were calculated according with sulforhodamine B assay (SRB assay), absorbance at 515 nm. Cells images of DMSO control and 124 were taken at 24, 48 and 72 h through brightfield using conventional microscope. Results represents a single experiment done in a single sample.
# Materials and methods: NZM40 cell line is described above. 1×10^6 NZM40 cells diluted in MEMα media were added to 2×10 cm plates and left to settle for 24 hours. After 24 hour settle period, media was removed from cells and 9900 μL fresh MEMα media added to each plate. 100 μL of DMSO were added to control plate and 100 μL [100 μM 124 in DMSO] were added to treatment plate to afford a final concentration of 1 μM 124. Cells were incubated at 37 °C and 5% 02 for 72 hours and cell images were taken every 24 hours. After 72 hour incubation, sulforhodamine B (SRB) assay was performed to compare final cell density. For this, 2.5 mL of cold 50% (w/v) TCA were added to DMSO (control) and 124 plates. Cells were incubated for 1 hour in TCA at 4 °C. […] The 96 well plate was analysed on plate reader, at wavelength of 515 nm. Results represent the absorbance of cells without dilution, 1:2 dilution, 1:4 dilution and 1:8 dilution.
# [2] = test system: NZM011, NZM009, NZM012, NZM022 and NZM077 cells; test: Flow cytometry uptake into metastatic melanoma lines (Example 11); settings: 200 nM, 30 minutes
# Description: FIG. 11: Uptake for compounds 124, 126, and 132 at 200 nM and 30 minute incubation with melanoma cell lines: NZM12 (NZM012) (BRAF V600E mutant metastatic melanoma, homozygous deletion CDKN2A and low invasive cell line), NZM77 (NZM077) (BRAF V600E mutant metastatic melanoma and missense NF1), NZM22 (NZM022) (BRAF G466A mutant metastatic melanoma, P53 241S/T mutant, NF1 non-frameshift insertion and PTEN epigenetic silencing). NZM9 (NZM009) (P53 179C/T mutant and homozygous silencing CDKN2A). NZM11 (NZM011) (BRAF V600E mutant metastatic melanoma and homozygous deletion CDKN2A), as positive control. Mean fluorescent intensities (MFI). 1,500-2,000 cells were obtained. Bars represent mean±SD. Results are from a single experiment done in triplicate. Cells were analysed by FACS.
# Methods: For screening, NZM011, NZM009, NZM012, NZM022 and NZM077 cells were suspended at 250 cells per μL in MEMα media and 200 μL was dispensed into 96 well plates. The cells were left to settle for 24 hours for NZM011, NZM012 and NZM077 and 48 hours for NZM009 and NZM022 at 37 °C, 5% O2, 5% CO2. Before addition to the cells, 10 μL of 10 mM stock solutions in DMSO of compounds 124, 126, and 132 were diluted with 1% FBS MEMα media to give a 200 nM solution.
# After the appropriate settle time, the media was removed from the 96 well plates and 200 μL of 200 nM conjugate solutions and DMSO control were dispensed to each well (in triplicate) and incubated for 30 minutes at 37 °C, 5% O2, 5% CO2. After 30 minutes, the media was removed and cells washed with PBS. Next, 100 μL of TrypLE trypsin (ThermoFisher Scientific) was added to each well and incubated for 5 minutes at 37 °C. After this, 150 μL of MEMα media (plus 1% FBS for NZM011, NZM012 and NZM077; plus 5% FBS for NZM009 and NZM022) were added. Cells were analysed by flow cytometry using a FACS biosort and FITC filter. Flow cytometry results represent the mean of the fluorescence intensities (in arbitrary units) measured for cells sorted in every sample.
compound,measurement,setting,value
CC1=CC(C)=[N+]2C1=Cc1ccc(CCCn3cc(CCNC(=O)/C=C/NC(=O)[C@H](O)C(C)(C)CO)nn3)n1[B-]2(F)F [Compound 124],incubation time to saturation point,Jurkat cells,≤ 30 min
same,"uptake, in words",Jurkat cells; 5 to 60 minutes,increased between 5 and 30 minutes; also recorded: selective uptake
same,fluorescent intensity compared to 126 and 132,Jurkat cells; 5 minutes,double
same,fluorescent intensity compared to 126 and 132,Jurkat cells; 30 minutes,six times greater
same,times greater fluorescence than 126 and 132,Jurkat cells; 60 minutes,6 times
same,effect on proliferation,[1],comparable proliferation to DMSO control cells; also recorded: no significant difference on proliferation; also recorded: little to no effect on proliferation
same,morphology under microscope,[1],do not exhibit significant changes on morphology
same,"uptake, in words",[2],"highest uptake levels; also recorded: consistent, selective and high level of uptake"
same,times greater uptake than conjugate 132,[2]; five cell lines,1.5-3 times
